Source: ChEMBL document CHEMBL3603819, “Targeting zoonotic viruses: Structure-based inhibition of the 3C-like protease from bat coronavirus HKU4--The likely reservoir host to the human coronavirus that causes Middle East Respiratory Syndrome (MERS)” (Bioorg Med Chem, 2015)

test system: Tylonycteris bat coronavirus HKU4; conditions: at 100 µM

SMILES | inhibition [%]
CC(C)COc1ccc(N(C(=O)c2ccco2)C(C(=O)NC(C)(C)C)c2cccnc2)cc1 (centres undefined) | 25
COc1ccc(C(=O)N(c2ccc(C(C)(C)C)cc2)C(C(=O)NC(C)(C)C)c2cccnc2)cc1 (centres undefined) | 16
CC(C)(C)NC(=O)C(c1ccsc1)N(C(=O)Cn1nnc2ccccc21)c1ccc(NC(=O)c2ccccc2)cc1 (centres undefined) | 79
Cc1nc2ccccc2n1CC(=O)N(c1ccc(NS(C)(=O)=O)cc1)C(C(=O)NC(C)(C)C)c1ccsc1 (centres undefined) | 13
CC(C)(C)NC(=O)C(c1cccnc1)N(C(=O)Cc1cccc2ccccc12)c1ccc(F)cc1 (centres undefined) | 22
CCC(=O)Nc1ccc(N(C(=O)Cn2c(C)nc3ccccc32)C(C(=O)NC(C)(C)C)c2ccsc2)cc1 (centres undefined) | 8
CC(=O)Nc1ccc(N(C(=O)Cn2cc(-c3ccccc3)nn2)C(C(=O)NC(C)(C)C)c2ccsc2)cc1 (centres undefined) | 19
CC(C)(C)NC(=O)C(c1cccnc1)N(C(=O)c1ccc(O)cc1)c1ccc(C(C)(C)C)cc1 (centres undefined) | 11
CC(C)(C)NC(=O)C(c1cccnc1)N(C(=O)c1ccco1)c1ccc(/C=C/c2ccccc2)cc1 (centres undefined) | 21
CC(C)(C)NC(=O)C(c1cccnc1)N(C(=O)c1n[nH]c2ccccc12)c1ccc(OC(F)F)cc1 (centres undefined) | 24
CC(C)c1ccc(N(C(=O)Cc2cccnc2)C(C(=O)NC(C)(C)C)c2ccsc2)cc1 (centres undefined) | 24
CC(C)(C)NC(=O)C(c1cccnc1)N(C(=O)Cc1ccccc1)c1ccc(C(C)(C)C)cc1 (centres undefined) | 20
CCOc1ccc(N(C(=O)c2ccco2)C(C(=O)NC(C)(C)C)c2cccnc2)cc1 (centres undefined) | 12
CC(C)(C)NC(=O)C(c1cccnc1)N(C(=O)c1ccc(F)cc1)c1ccc(C(C)(C)C)cc1 (centres undefined) | 21
CC(C)(C)NC(=O)C(c1cccnc1)N(C(=O)c1cc[nH]n1)c1ccc(C(C)(C)C)cc1 (stereo in doubt; 124B) | 17
CC(C)(C)NC(=O)C(c1ccsc1)N(C(=O)Cn1nnc2ccccc21)c1ccc(NC(=O)C2CCC2)cc1 (centres undefined) | 20
CC(C)c1ccc(N(C(=O)Cc2c[nH]c3ccccc23)C(C(=O)NC(C)(C)C)c2cccnc2)cc1 (centres undefined) | 78

SMILES | inhibition [%]
COCC(=O)N(c1ccc(C(C)C)cc1)C(C(=O)NC(C)(C)C)c1cccnc1 (centres undefined) | 23
CC(C)(C)NC(=O)C(c1ccsc1)N(C(=O)c1ccc(C(F)(F)F)nc1)c1ccc(C(C)(C)C)cc1 (centres undefined) | 17
CCC(=O)Nc1ccc(N(C(=O)Cn2nnc3ccccc32)C(C(=O)NC(C)(C)C)c2ccsc2)cc1 (centres undefined) | 34
Cc1ccc(C(C(=O)NC(C)(C)C)N(C(=O)c2ccco2)c2ccc(C(C)(C)C)cc2)cn1 (centres undefined) | 8
Cn1cnc(C(=O)N(c2ccc(C(C)(C)C)cc2)C(C(=O)NC(C)(C)C)c2cccnc2)c1 (centres undefined) | 60
CC(C)C(=O)Nc1ccc(N(Cc2ccsc2)C(=O)Cn2nnc3ccccc32)cc1 | 92
CC(C)(C)NC(=O)C(c1cccnc1)N(C(=O)Cc1c[nH]c2ccccc12)c1ccc(OCF)cc1 (centres undefined) | 52
CC(C)(C)NC(=O)C(c1ccccn1)N(C(=O)c1cccnc1)c1ccc(C(C)(C)C)cc1 (centres undefined) | 12
CC(C)(C)NC(=O)C(c1cccnc1)N(C(=O)c1ccc(C(F)(F)F)cn1)C1CC1 (centres undefined) | 42
CC(C)(C)NC(=O)C(c1cccnc1)N(C(=O)c1c[nH]cn1)c1ccc(C(C)(C)C)cc1 (racemic) | 94
O=C(Nc1ccc(N(Cc2ccsc2)C(=O)Cn2nnc3ccccc32)cc1)C1CC1 | 89
COc1cccc(Oc2ccc(N(C(=O)c3ccco3)C(C(=O)NC(C)(C)C)c3cccnc3)cc2)c1 (centres undefined) | 18
CC(C)c1ccc(N(C(=O)c2cccc3c2CCCC3)C(C(=O)NC(C)(C)C)c2ccsc2)cc1 (centres undefined) | 20
CC(C)(C)NC(=O)C(c1cccnc1)N(C(=O)c1ccco1)c1ccc(-c2ccccc2C#N)cc1 (centres undefined) | 62
CC(C)c1ccc(N(C(=O)c2ccc(C(F)(F)F)nc2)C(C(=O)NC(C)(C)C)c2cccnc2)cc1 (centres undefined) | 18
O=C(Cn1nnc2ccccc21)N(Cc1ccsc1)c1ccc(NCc2ccccc2)cc1 | 64
CC(C)(C)NC(=O)C(c1ccsc1)N(C(=O)c1ccc(C#N)cc1)c1ccc(OCF)cc1 (centres undefined) | 16
